# The source made the active and inactive calls. How the calls were made is not given here.
# Columns and labels:
# [1] = test system: Staphylococcus aureus; assay: Inhibition of FabB/FabF in methicillin-sensitive Staphylococcus aureus assessed as antibacterial activity after 16 hrs by agar dilution method
# [2] = test system: Staphylococcus aureus; assay: Inhibition of FabB/FabF in methicillin-resistant Staphylococcus aureus assessed as antibacterial activity after 16 hrs by agar dilution method
# [3] = test system: Staphylococcus aureus; assay: Inhibition of FabB/FabF in methicillin-resistant Staphylococcus aureus assessed as antibacterial activity at 5 ug/disk after 18 hrs by agar disk diffusion method
# [4] = test system: Staphylococcus aureus; assay: Inhibition of FabB/FabF in Staphylococcus aureus ATCC 29213 assessed as antibacterial activity after 16 hrs by agar dilution method
Compound,MIC [1],MIC [2],"antibacterial activity (disk diffusion, qualitative) [3]",MIC [4]
C[C@]12C[C@@]34C=C(Sc5ccc(I)cc5)C(=O)[C@@](C)(CCC(=O)Nc5c(O)ccc(C(=O)O)c5O)[C@@H]3[C@H](C[C@@H]1C4)O2,0.25 µg/mL,0.25 µg/mL,Active,0.5 µg/mL
CC(=O)NC[C@H]1CN(c2ccc(N3CCOCC3)c(F)c2)C(=O)O1,1 µg/mL,1 µg/mL,Active,1 µg/mL
C[C@]12C[C@@]34C=C(Sc5cccc(C#CC6(O)CCCCC6)c5)C(=O)[C@@](C)(CCC(=O)Nc5c(O)ccc(C(=O)O)c5O)[C@@H]3[C@H](C[C@@H]1C4)O2,0.25 µg/mL,0.25 µg/mL,Active,0.25 µg/mL
C[C@]12C[C@@]34C=C(Sc5cccc(C#Cc6ccccn6)c5)C(=O)[C@@](C)(CCC(=O)Nc5c(O)ccc(C(=O)O)c5O)[C@@H]3[C@H](C[C@@H]1C4)O2,0.5 µg/mL,0.5 µg/mL,Active,0.5 µg/mL
C[C@]12C[C@@]34C=C(SCc5ccco5)C(=O)[C@@](C)(CCC(=O)Nc5c(O)ccc(C(=O)O)c5O)[C@@H]3[C@H](C[C@@H]1C4)O2,–,–,Active,–
CCCCC#Cc1ccc(SC2=C[C@]34C[C@H]5C[C@H](O[C@@]5(C)C3)[C@H]4[C@](C)(CCC(=O)Nc3c(O)ccc(C(=O)O)c3O)C2=O)cc1,–,–,Active,–
C[C@]12C[C@@]34C=C(Sc5ccc(-c6cccc(O)c6)cc5)C(=O)[C@@](C)(CCC(=O)Nc5c(O)ccc(C(=O)O)c5O)[C@@H]3[C@H](C[C@@H]1C4)O2,–,–,Active,–
C[C@]12C[C@]34C[C@H]1C[C@H](O2)[C@H]3[C@](C)(CCC(=O)Nc1c(O)ccc(C(=O)O)c1O)C(=O)[C@@H]1O[C@@H]14,16 µg/mL,16 µg/mL,–,32 µg/mL
CCN(CC)CC#Cc1cccc(SC2=C[C@]34C[C@H]5C[C@H](O[C@@]5(C)C3)[C@H]4[C@](C)(CCC(=O)Nc3c(O)ccc(C(=O)O)c3O)C2=O)c1,–,–,Active,–
COC(=O)/C=C/c1cccc(SC2=C[C@]34C[C@H]5C[C@H](O[C@@]5(C)C3)[C@H]4[C@](C)(CCC(=O)Nc3c(O)ccc(C(=O)O)c3O)C2=O)c1,–,–,Active,–
C[C@]12C[C@@]34C=C(Sc5cccc(Cl)c5)C(=O)[C@@](C)(CCC(=O)Nc5c(O)ccc(C(=O)O)c5O)[C@@H]3[C@H](C[C@@H]1C4)O2,–,–,Active,–
C[C@]12C[C@@]34C=C(Sc5cc(Cl)cc(Cl)c5)C(=O)[C@@](C)(CCC(=O)Nc5c(O)ccc(C(=O)O)c5O)[C@@H]3[C@H](C[C@@H]1C4)O2,–,–,Active,–
C[C@]12C[C@@]34C=C(Sc5cccc(-c6ccccc6)c5)C(=O)[C@@](C)(CCC(=O)Nc5c(O)ccc(C(=O)O)c5O)[C@@H]3[C@H](C[C@@H]1C4)O2,–,–,Active,–
C[C@]12C[C@@]34C=C(Sc5ccc(-c6ccccc6F)cc5)C(=O)[C@@](C)(CCC(=O)Nc5c(O)ccc(C(=O)O)c5O)[C@@H]3[C@H](C[C@@H]1C4)O2,–,–,Active,–
CCCCC#Cc1cccc(SC2=C[C@]34C[C@H]5C[C@H](O[C@@]5(C)C3)[C@H]4[C@](C)(CCC(=O)Nc3c(O)ccc(C(=O)O)c3O)C2=O)c1,–,–,Active,–
CC(C)(C)NC(=O)/C=C/c1ccc(SC2=C[C@]34C[C@H]5C[C@H](O[C@@]5(C)C3)[C@H]4[C@](C)(CCC(=O)Nc3c(O)ccc(C(=O)O)c3O)C2=O)cc1,–,–,Active,–
CC(C)(C)C#Cc1cccc(SC2=C[C@]34C[C@H]5C[C@H](O[C@@]5(C)C3)[C@H]4[C@](C)(CCC(=O)Nc3c(O)ccc(C(=O)O)c3O)C2=O)c1,–,–,Active,–

Compound,MIC [1],MIC [2],"antibacterial activity (disk diffusion, qualitative) [3]",MIC [4]
C[C@]12C[C@@]34C=C(Sc5ccc(F)cc5)C(=O)[C@@](C)(CCC(=O)Nc5c(O)ccc(C(=O)O)c5O)[C@@H]3[C@H](C[C@@H]1C4)O2,0.5 µg/mL,0.5 µg/mL,Active,1 µg/mL
C[C@]12C[C@@]34C=C(Sc5ccc(-c6cccnc6)cc5)C(=O)[C@@](C)(CCC(=O)Nc5c(O)ccc(C(=O)O)c5O)[C@@H]3[C@H](C[C@@H]1C4)O2,–,–,Active,–
CCCSC1=C[C@]23C[C@H]4C[C@H](O[C@@]4(C)C2)[C@H]3[C@](C)(CCC(=O)Nc2c(O)ccc(C(=O)O)c2O)C1=O,0.5 µg/mL,0.5 µg/mL,Active,1 µg/mL
C[C@]12C[C@@]34C=C(Sc5cccc(C#Cc6cccc(N)c6)c5)C(=O)[C@@](C)(CCC(=O)Nc5c(O)ccc(C(=O)O)c5O)[C@@H]3[C@H](C[C@@H]1C4)O2,–,–,Active,–
C[C@]12C[C@@]34C=C(Sc5ccc(Cl)cc5)C(=O)[C@@](C)(CCC(=O)Nc5c(O)ccc(C(=O)O)c5O)[C@@H]3[C@H](C[C@@H]1C4)O2,–,–,Active,–
C[C@]12C[C@@]34C=C(Sc5ccc(C#Cc6ccccc6)cc5)C(=O)[C@@](C)(CCC(=O)Nc5c(O)ccc(C(=O)O)c5O)[C@@H]3[C@H](C[C@@H]1C4)O2,–,–,Active,–
C[C@]12C[C@@]34C=C(Sc5ccc(-c6ccccc6)cc5)C(=O)[C@@](C)(CCC(=O)Nc5c(O)ccc(C(=O)O)c5O)[C@@H]3[C@H](C[C@@H]1C4)O2,–,–,Active,–
CCCCc1ccc(C#Cc2cccc(SC3=C[C@]45C[C@H]6C[C@H](O[C@@]6(C)C4)[C@H]5[C@](C)(CCC(=O)Nc4c(O)ccc(C(=O)O)c4O)C3=O)c2)cc1,–,–,Active,–
C[C@]12C[C@@]34C=C(Sc5ccc(N)cc5)C(=O)[C@@](C)(CCC(=O)Nc5c(O)ccc(C(=O)O)c5O)[C@@H]3[C@H](C[C@@H]1C4)O2,–,–,Active,–
C[C@]12C[C@@]34C=C(Sc5ccc(C#CC6CC6)cc5)C(=O)[C@@](C)(CCC(=O)Nc5c(O)ccc(C(=O)O)c5O)[C@@H]3[C@H](C[C@@H]1C4)O2,–,–,Active,–
CCSC1=C[C@]23C[C@H]4C[C@H](O[C@@]4(C)C2)[C@H]3[C@](C)(CCC(=O)Nc2c(O)ccc(C(=O)O)c2O)C1=O,–,–,Active,–
C[C@]12C[C@@]34C=C(Sc5ccccc5C(=O)O)C(=O)[C@@](C)(CCC(=O)Nc5c(O)ccc(C(=O)O)c5O)[C@@H]3[C@H](C[C@@H]1C4)O2,–,–,Active,–
C[C@]12C[C@@]34C=C(Sc5cccc(Br)c5)C(=O)[C@@](C)(CCC(=O)Nc5c(O)ccc(C(=O)O)c5O)[C@@H]3[C@H](C[C@@H]1C4)O2,–,–,Active,–
Cc1occc1SC1=C[C@]23C[C@H]4C[C@H](O[C@@]4(C)C2)[C@H]3[C@](C)(CCC(=O)Nc2c(O)ccc(C(=O)O)c2O)C1=O,–,–,Active,–
C[C@]12C[C@@]34C=C(Sc5cccc(I)c5)C(=O)[C@@](C)(CCC(=O)Nc5c(O)ccc(C(=O)O)c5O)[C@@H]3[C@H](C[C@@H]1C4)O2,0.5 µg/mL,0.5 µg/mL,Active,1 µg/mL
C[C@]12C[C@@]34C=C(Sc5cccc(-c6ccco6)c5)C(=O)[C@@](C)(CCC(=O)Nc5c(O)ccc(C(=O)O)c5O)[C@@H]3[C@H](C[C@@H]1C4)O2,–,–,Active,–
